Measurements taken from patent EP1201238A1, “SULFONAMIDE DERIVATIVES AND REMEDIES FOR ALLODYNIA” (ONO PHARMACEUTICAL CO., LTD., priority 1999, dated 2001).

Assays:
Allodynia caused by PGE2 = assay: inhibitory effect on allodynia caused by intrathecal injection of PGE2; type: in vivo, male ddY mice; settings: for % of allodynia expression, Allodynia caused by PGE2: mixture of PGE2 (10ng/body) and compound (10ng/body) injected intrathecally, mice, touch-stimulus score 5 min after administration, 100% = all subjects score 2; for anti-allodynia effect (in words): summary of tables 1, 2 and 3 (PGE2- and PGF2α-induced allodynia, mice)
Experimental: (1) an inhibitory effect on allodynia caused by intrathecal injection of PGE2
(§1) Five or six male ddY mice weighing 22± 2 g in a group were used. Under non-anesthesia, the mixture (5µL) of PGE2 (10ng/body) and a compound (10ng/body) with 27-gauge was injected intrathecally with stainless injection needle (0.33 mm, o.d.) between fifth and sixth vertebra lumbar of a mouse, 5. min after administration, to tail from belly side of a mouse was touch-stimulated with brush and allodynia was evaluated by score.
(§2) Score is 0: no changed, 1: escaped from touch-stimulus and squeaked, 2: escaped vigorously from touch-stimulus and squeaked loudly. When All the subjects got score 2, it was evaluated as 100% of allodynia expression.
(§3) For example, When, in six mice, score 0 is one, score 1 is three and score 2 is two, % of allodynia expression is below: ((0×1) + (1×3) + (2×2))/(6×2)× 100 = 58. 3(%) [formula]

[1] = tested on: Allodynia caused by PGF2α; assay: inhibitory effect on allodynia caused by intrathecal injection of PGF2α; type: in vivo, male ddY mice; settings: mixture of PGF2α (1µg/body) and compound (100ng/body) injected intrathecally, mice, touch-stimulus score 15min after administration
Experimental: as §1, §2, §3
(2) an inhibitory effect on allodynia caused by intrathecal injection of PGF2α
The experiment was the same as (1) with the exception that the mixture of PGF2α (1µg/body) and a compound (100ng/body) was used as administered drug and allodynia was evaluated at 15min after administration.

[2] = toxicity, maximal tolerated dose with oral administration; settings: in vivo, rat
Experimental: The toxicity of the compounds of the present invention is very low and therefore the compounds may be considered safe for pharmaceutical use. For example, the maximal tolerated dose with oral administration of the compounds of formula (I), (IV) and (VI) was more than 2000 mg/kg in rat.

O=C(O)CCC/C=C\[C@H]1[C@H]2CC[C@H](C2)[C@@H]1CNS(=O)(=O)c1ccc(F)c(F)c1 [Formula(III), 6-[(1S,2S,3S,4R)-3-(3,4-difluorophenylsulfonylaminomethyl)bicyclo[2.2.1]heptan-2-yl]-5Z-hexenoic acid]
% of allodynia expression, Allodynia caused by PGE2 (Allodynia caused by PGE2): 0.0 ± 0.0%
anti-allodynia effect (in words) (Allodynia caused by PGE2): effective
% of allodynia expression, Allodynia caused by PGF2α [1]: 8.3 ± 8.3%

O=C(O)CCC/C=C\[C@H]1[C@@H]2CC[C@@H](C2)[C@@H]1CNS(=O)(=O)c1cc(F)ccc1F [Formula(IV), 6-[(1R,2S,3S,4S)-3-(2,5-difluorophenylsulfonylaminomethyl)bicyclo[2.2.1]heptan-2-yl]-5Z-hexenoic acid]
% of allodynia expression, Allodynia caused by PGE2 (Allodynia caused by PGE2): 8.3 ± 8.3%
anti-allodynia effect (in words) (Allodynia caused by PGE2): effective
% of allodynia expression, Allodynia caused by PGF2α [1]: 0.0 ± 0.0%
MTD [2]: > 2000 mg/kg

O=C(O)CCC/C=C\[C@H]1[C@H]2CC[C@H](C2)[C@@H]1CNS(=O)(=O)c1ccccc1Cl [comparison compound 1, 6-[(1S,2S,3S,4R)-3-(2-chlorophenylsulfonylaminomethyl)bicyclo[2.2.1]heptan-2-yl]-5Z-hexenoic acid, reference compound]
% of allodynia expression, Allodynia caused by PGE2 (Allodynia caused by PGE2): 100 ± 0.0%
anti-allodynia effect (in words) (Allodynia caused by PGE2): no effect
% of allodynia expression, Allodynia caused by PGF2α [1]: 91.7 ± 8.3%

O=C(O)CCC/C=C\[C@H]1[C@@H]2CC[C@@H](C2)[C@@H]1CNS(=O)(=O)c1ccccc1I [comparison compound 2, 6-[(1R,2S,3S,4S)-3-(2-iodophenylsulfonylaminomethyl)bicyclo[2.2.1]heptan-2-yl]-5Z-hexenoic acid, reference compound]
% of allodynia expression, Allodynia caused by PGE2 (Allodynia caused by PGE2): 83.3 ± 10.5%

O=C(O)CCC/C=C\[C@H]1[C@H]2CC[C@H](C2)[C@@H]1CNS(=O)(=O)c1c(Cl)cccc1Cl [comparison compound 3, 6-[(1S,2S,3S,4R)-3-(2,6-dichlorophenylsulfonylaminomethyl)bicyclo[2.2.1]heptan-2-yl]-5Z-hexenoic acid, reference compound]
% of allodynia expression, Allodynia caused by PGE2 (Allodynia caused by PGE2): 91.7 ± 8.3%
anti-allodynia effect (in words) (Allodynia caused by PGE2): no effect

O=C(O)CCC/C=C\[C@H]1[C@@H]2CC[C@@H](C2)[C@@H]1CNS(=O)(=O)c1ccc(F)c(F)c1 [comparison compound 4, 6-[(1R,2S,3S,4S)-3-(3,4-difluorophenylsulfonylaminomethyl)bicyclo[2.2.1]heptan-2-yl]-5Z-hexenoic acid, reference compound]
% of allodynia expression, Allodynia caused by PGE2 (Allodynia caused by PGE2): 75.0 ± 11.2%

CC1(C)[C@H]2C[C@H](NS(=O)(=O)Cc3ccccc3)[C@@H](C/C=C\CCCC(=O)O)[C@@H]1C2 [comparison compound 5, 7-[(1S,2S,3S,5R)-3-benzylsulfonylamino-6,6-dimethylbicyclo[3.1.1]heptan-2-yl]-5Z-heptenoic acid, reference compound]
% of allodynia expression, Allodynia caused by PGE2 (Allodynia caused by PGE2): 83.3 ± 10.5%
% of allodynia expression, Allodynia caused by PGF2α [1]: 83.3 ± 10.5%

O=C(O)CCC/C=C\C[C@H]1[C@@H]2CC[C@@H](C2)[C@@H]1NS(=O)(=O)c1ccccc1 [comparison compound 6, reference compound]
% of allodynia expression, Allodynia caused by PGE2 (Allodynia caused by PGE2): 90.0 ± 10.0%
% of allodynia expression, Allodynia caused by PGF2α [1]: 60.0 ± 10.0%

O=C(O)CCC/C=C\[C@H]1[C@H]2CC[C@H](C2)[C@@H]1CNS(=O)(=O)c1ccccc1I [formula (I), 6-[(1S,2S,3S,4R)-3-(2-iodophenylsulfonylaminomethyl)bicyclo[2.2.1]heptan-2-yl]-5Z-hexenoic acid]
% of allodynia expression, Allodynia caused by PGE2 (Allodynia caused by PGE2): 8.3 ± 8.3%
% of allodynia expression, Allodynia caused by PGF2α [1]: 8.3 ± 8.3%
MTD [2]: > 2000 mg/kg

O=C(O)CCC/C=C\[C@H]1[C@H]2CC[C@H](C2)[C@@H]1CNS(=O)(=O)c1ccccc1F [formula (II), 6-[(1S,2S,3S,4R)-3-(2-fluorophenylsulfonylaminomethyl)bicyclo[2.2.1]heptan-2-yl]-5Z-hexenoic acid]
% of allodynia expression, Allodynia caused by PGE2 (Allodynia caused by PGE2): 0.0 ± 0.0%
% of allodynia expression, Allodynia caused by PGF2α [1]: 8.3 ± 8.3%

COc1ccc(S(=O)(=O)N[C@H]2C[C@H]3C[C@@H]([C@@H]2C/C=C\CCCC(=O)O)C3(C)C)cc1 [formula (V), 7-[(1S,2S,3S,5R)-3-(4-methoxybenzenesulfonylamino)-6,6-dimethylbicyclo [3.1.1]heptan-2-yl]-5Z-heptenoic acid]
% of allodynia expression, Allodynia caused by PGE2 (Allodynia caused by PGE2): 8.3 ± 8.3%
anti-allodynia effect (in words) (Allodynia caused by PGE2): have activity
% of allodynia expression, Allodynia caused by PGF2α [1]: 8.3 ± 8.3%

CC1(C)[C@H]2C[C@H](NS(=O)(=O)c3ccccc3)[C@@H](C/C=C\CCCC(=O)O)[C@@H]1C2 [formula (VI), 7-[(1S,2S,3S,5R)-3-benzenesulfonylamino-6,6-dimethylbicyclo[3.1.1]heptan-2-yl]-5Z-heptenoic acid]
% of allodynia expression, Allodynia caused by PGE2 (Allodynia caused by PGE2): 8.3 ± 8.3%
anti-allodynia effect (in words) (Allodynia caused by PGE2): have activity
% of allodynia expression, Allodynia caused by PGF2α [1]: 0.0 ± 0.0%
MTD [2]: > 2000 mg/kg
